Patent US20230399341A1, “7-PHENYL SUBSTITUTED 2-AMINOQUINAZOLINE INHIBITORS OF HPK1” (MERCK SHARP & DOHME LLC, priority 2020, published 2023)
pIC50: −log10 of the molar value.

molecular target: T1, Human HPK1, catalytic domain (Homo sapiens, UniProt Q92918); assay: HPK1-SLP76 TR-FRET Assay; type: biochemical; conditions: 75 pM HPK1, ATP 10 uM, SLP76 10 nM, 30 min pre-incubation, 60 min reaction
T1 sequence (Q92918 1-346): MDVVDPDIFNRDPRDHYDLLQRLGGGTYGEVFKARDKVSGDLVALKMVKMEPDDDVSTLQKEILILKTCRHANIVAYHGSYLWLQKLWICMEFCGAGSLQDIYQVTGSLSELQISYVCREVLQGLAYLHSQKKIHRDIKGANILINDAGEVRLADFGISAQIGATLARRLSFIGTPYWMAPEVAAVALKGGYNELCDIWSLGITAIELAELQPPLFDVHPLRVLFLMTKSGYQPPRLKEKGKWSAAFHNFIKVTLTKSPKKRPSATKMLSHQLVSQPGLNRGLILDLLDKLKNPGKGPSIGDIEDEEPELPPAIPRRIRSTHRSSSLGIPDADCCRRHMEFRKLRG

In order of falling pIC50:
1. Cc1c(-c2c(F)c(N)c3cnc(Nc4ccc5c(c4)CN(C)CC5)nc3c2Cl)cnc2c1NCCO2 (single isomer, unassigned) [Compound 2-180, (+ or −)-8-chloro-6-fluoro-7-(8-methyl-2,3-dihydro-1H-pyrido[2,3-b][1,4]oxazin-7-yl)-N~2~- (2-methyl-1,2,3,4-tetrahydroisoquinolin-7-yl)quinazoline-2,5-diamine]  10.61
2. COc1cc2c(cc1Nc1ncc3c(N)c(F)c(-c4cnc5c(c4C)NCCO5)c(Cl)c3n1)CN(C)CC21CC1 (single isomer, unassigned) [Compound 2-163, 8-chloro-6-fluoro-N~2~- (6′-methoxy-2′-methyl-2′,3′-dihydro-1′H-spiro[cyclopropane-1,4′-isoquinolin]-7′-yl)-7-(8-methyl-2,3-dihydro-1H-pyrido[2,3-b][1,4]oxazin-7-yl)quinazoline-2,5-diamine]  10.23
3. CCC1COC(=O)N1c1cc(N)c2cnc(Nc3cc4c(cc3OC)CCN(C)C4)nc2c1 (single isomer, unassigned) [Compound 3-16, (S or R)-3-{5-amino-2-[(6-methoxy-2-methyl-1,2,3,4-tetrahydroisoquinolin-7-yl)amino]quinazolin-7-yl}-4-ethyl-1,3-oxazolidin-2-one]  9.77
4. CCC1COC(=O)N1c1ccc2cnc(Nc3cc4c(cc3OC)CCN(C)C4)nc2c1 (single isomer, unassigned) [Compound 3-13, (S or R)-4-ethyl-3-{2-[(6-methoxy-2-methyl-1,2,3,4-tetrahydroisoquinolin-7-yl)amino]quinazolin-7-yl}-1,3-oxazolidin-2-one]  8.98
5. COc1cc2c(cc1Nc1ncc3ccc(-c4cncc(N)c4C)cc3n1)CN(C)CC2 [Compound 1-3, 7-(5-amino-4-methylpyridin-3-yl)-N-(6-methoxy-2-methyl-1,2,3,4-tetrahydroisoquinolin-7-yl)quinazolin-2-amine]  8.82
6. COc1cc2c(cc1Nc1ncc3ccc(-c4cnc5c(c4C)NCCO5)cc3n1)CN(C)CC2 [Compound 1-4, N-(6-methoxy-2-methyl-1,2,3,4-tetrahydroisoquinolin-7-yl)-7-(8-methyl-2,3-dihydro-1H-pyrido[2,3-b][1,4]oxazin-7-yl)quinazolin-2-amine]  8.82
7. COc1cc2c(cc1Nc1ncc3ccc(-c4cnc(N)nc4C)cc3n1)CN(C)CC2 [Compound 1-19, 7-(2-amino-4-methylpyrimidin-5-yl)-N-(6-methoxy-2-methyl-1,2,3,4-tetrahydroisoquinazolin-7-yl)quinazolin-2-amine]  8.59
8. Cc1c(-c2c(F)c(N)c3cnc(Nc4ccc5c(c4)CN(C)CC5)nc3c2Cl)cnc2c1NCCO2 (single isomer, unassigned) [Compound 2-179, (+ or −)-8-chloro-6-fluoro-7-(8-methyl-2,3-dihydro-1H-pyrido[2,3-b][1,4]oxazin-7-yl)-N~2~- (2-methyl-1,2,3,4-tetrahydroisoquinolin-7-yl)quinazoline-2,5-diamine]  8.53
9. CCC1COC(=O)N1c1cc(N)c2cnc(Nc3cc4c(cc3OC)CCN(C)C4)nc2c1 (single isomer, unassigned) [Compound 3-15, (S or R)-3-{5-amino-2-[(6-methoxy-2-methyl-1,2,3,4-tetrahydroisoquinolin-7-yl)amino]quinazolin-7-yl}-4-ethyl-1,3-oxazolidin-2-one]  8.49
10. CCn1cc(-c2ccc3cnc(Nc4cc5c(cc4OC)CCN(C)C5)nc3c2)cn1 [Compound 1-20, 7-(1-ethyl-1H-pyrazol-4-yl)-N-(6-methoxy-2-methyl-1,2,3,4-tetrahydroisoquinolin-7-yl)quinazolin-2-amine]  8.34
11. COc1cc2c(cc1Nc1ncc3ccc(-c4cnn(CCO)c4)cc3n1)CN(C)CC2 [Compound 1-13, 2-(4-{2-[(6-methoxy-2-methyl-1,2,3,4-tetrahydroisoquinazolin-7-yl)amino]quinazolin-7-yl}-1H-pyrazol-1-yl)ethan-1-ol]  8.11
12. COc1cncc(-c2ccc3cnc(Nc4cc5c(cc4OC)CCN(C)C5)nc3c2)c1 [Compound 1-17, N-(6-methoxy-2-methyl-1,2,3,4-tetrahydroisoquinolin-7-yl)-7-(5-methoxypyridin-3-yl)quinazolin-2-amine]  7.72
13. CCC1COC(=O)N1c1ccc2cnc(Nc3cc4c(cc3OC)CCN(C)C4)nc2c1 (single isomer, unassigned) [Compound 3-14, (S or R)-4-ethyl-3-{2-[(6-methoxy-2-methyl-1,2,3,4-tetrahydroisoquinolin-7-yl)amino]quinazolin-7-yl}-1,3-oxazolidin-2-one]  7.61
14. COc1cc2c(cc1Nc1ncc3ccc(-c4cnccc4C)cc3n1)CN(C)CC2 [Compound 1-2, N-(6-methoxy-2-methyl-1,2,3,4-tetrahydroisoquinolin-7-yl)-7-(4-methylpyridin-3-yl)quinazolin-2-amine]  7.58
15. COc1cc2c(cc1Nc1ncc3ccc(-c4ccccc4N4CCOC4=O)cc3n1)CN(C)CC2 [Compound 1-10, 3-(2-{2-[(6-methoxy-2-methyl-1,2,3,4-tetrahydroisoquinolin-7-yl)amino]quinazolin-7-yl}phenyl)-1,3-oxazolidin-2-one]  7.57
16. COc1cc2c(cc1Nc1ncc3ccc(-c4cccc5c4CNCC5)cc3n1)CN(C)CC2 [Compound 1-9, N-(6-methoxy-2-methyl-1,2,3,4-tetrahydroisoquinolin-7-yl)-7-(1,2,3,4-tetrahydroisoquinolin-8-yl)quinazolin-2-amine]  7.37
17. COc1cc2c(cc1Nc1ncc3ccc(-c4cnc(C(C)(C)O)s4)cc3n1)CN(C)CC2 [Compound 1-15, 2-(5-{2-[(6-methoxy-2-methyl-1,2,3,4-tetrahydroisoquinolin-7-yl)amino]quinazolin-7-yl}-1,3-thiazol-2-yl)propan-2-ol]  7.37
18. COc1cc2c(cc1Nc1ncc3ccc(-c4cncc(C(C)(C)O)c4)cc3n1)CN(C)CC2 [Compound 1-14, 2-(5-{2-[(6-methoxy-2-methyl-1,2,3,4-tetrahydroisoquinolin-7-yl)amino]quinazolin-7-yl}pyridin-3-yl)propan-2-ol]  7.26
19. COc1cc2c(cc1Nc1ncc3ccc(-c4ccc(NC(C)=O)nc4)cc3n1)CN(C)CC2 [Compound 1-18, N-(5-{2-[(6-methoxy-2-methyl-1,2,3,4-tetrahydroisoquinolin-7-yl)amino]quinazolin-7-yl}pyridin-2-yl)acetamide]  7.09
20. COc1cc2c(cc1Nc1ncc3ccc(-c4cccc5c4CCNC5)cc3n1)CN(C)CC2 [Compound 1-6, N-(6-methoxy-2-methyl-1,2,3,4-tetrahydroisoquinolin-7-yl)-7-(1,2,3,4-tetrahydroisoquinolin-5-yl)quinazolin-2-amine]  7.04
21. COc1cc2c(cc1Nc1ncc3ccc(-c4ccccc4)cc3n1)CN(C)CC2 [Compound 1-1, N-(6-methoxy-2-methyl-1,2,3,4-tetrahydroisoquinolin-7-yl)-7-phenylquinazolin-2-amine]  6.85
22. COc1cc2c(cc1Nc1ncc3ccc(-c4ccn5ncnc5c4)cc3n1)CN(C)CC2 [Compound 1-16, N-(6-methoxy-2-methyl-1,2,3,4-tetrahydroisoquinolin-7-yl)-7-([1,2,4]triazolo[1,5-a]pyridin-7-yl)quinazolin-2-amine]  6.81
23. COc1cc2c(cc1Nc1ncc3ccc(-c4cc(C)ccc4N4CCOC4=O)cc3n1)CN(C)CC2 [Compound 1-11, 3-(2-{2-[(6-methoxy-2-methyl-1,2,3,4-tetrahydroisoquinolin-7-yl)amino]quinazolin-7-yl}-4-methylphenyl)-1,3-oxazolidin-2-one]  6.75
24. COc1cc2c(cc1Nc1ncc3ccc(-c4c(C)cccc4F)cc3n1)CN(C)CC2 [Compound 1-5, 7-(2-fluoro-6-methylphenyl)-N-(6-methoxy-2-methyl-1,2,3,4-tetrahydroisoquinolin-7-yl)quinazolin-2-amine]  6.64
25. COc1cc2c(cc1Nc1ncc3ccc(-c4cc(F)ccc4CN)cc3n1)CN(C)CC2 [Compound 1-7, 7-[2-(aminomethyl)-5-fluorophenyl]-N-(6 methoxy-2-methyl-1,2,3,4-tetrahydroisoquinolin-7-yl)quinazolin-2-amine]  6.61
26. CNC(=O)c1ccc(-c2ccc3cnc(Nc4cc5c(cc4OC)CCN(C)C5)nc3c2)cn1 [Compound 1-21, 5-{2-[(6-methoxy-2-methyl-1,2,3,4-tetrahydroisoquinolin-7-yl)amino]quinazolin-7-yl}-N-methylpyridine-2-carboxamide]  6.53
27. COc1cc2c(cc1Nc1ncc3ccc(-c4ccc(C(F)(F)C(N)=O)nc4)cc3n1)CN(C)CC2 [Compound 1-12, 2,2-difluoro-2-(5-{2-[(6-methoxy-2-methyl-1,2,3,4-tetrahydroisoquinolin-7-yl)amino]quinazolin-7-yl}pyridin-2-yl)acetamide]  6.47
28. COc1cc2c(cc1Nc1ncc3ccc(-c4ccc(F)cc4CN)cc3n1)CN(C)CC2 [Compound 1-8, 7-[2-(aminomethyl)-4-fluorophenyl]-N-(6-methoxy-2-methyl-1,2,3,4-tetrahydroisoquinolin-7-yl)quinazolin-2-amine]  6.40
29. COc1cc2c(cc1Nc1ncc3ccc(NCC4CC(=O)N(C)C4)cc3n1)CN(C)CC2 (stereo in doubt) [Compound 3-48, (4S)-4-[({2-[(6-methoxy-2-meth-yl-1,2,3,4-tetrahydroisoquinolin-7-yl)amino]quinazolin-7-yl}-amino)methyl]-1-methylpyrrol-idin-2-one]  6.28
